In US12291553B2, “Non-opioid anti-pain medication” (priority 2020, dated 2025):
pIC50: −log10 of the molar value. Like-named read-outs stand apart in the source and are kept apart here. Residues, ends and D or L forms follow the SMILES beside them. *: point of attachment. Cbz = O=C(OCc1ccccc1)*; OtBu = CC(C)(C)O*

Key:
[1] = test system: HEK293 cells; assay type: cell-based
Excerpt: (§1) FIG. 3. PW164 inhibits FGF13-1b but not FGF13-1a binding to the Nav1.6 C-tail. […] Data are normalized with respect to 0.5% DMSO (vehicle). (C) PW164 has no effect on full length luciferase in transiently transfected HEK293 cells. (D) PW164 is not toxic toward HEK293 cells using the LDH cytotoxicity assay.

[2] = test system: mechanical hypersensitivity at the surgical wound; assay: Plantar incision model of post-operative pain; assay type: in vivo, mice; conditions: administered to the wound, 3 μL
Excerpt: FIG. 10. […] After plantar incision, mice develop profound mechanical hypersensitivity to LVF at the surgical wound (scheme).

[3] = biological target: human cardiac ERG channel (hERG) (Homo sapiens, UniProt Q12809); assay: hERG channel activity
Protocol: (§2) FIG. 12. In vitro studies of PW164 plasma and blood metabolic stability in rodent and preclinical human models. Intestinal absorption using the P-glycoprotein (P-gp) inhibition (IC50) assay as well as activity against the human cardiac ERG channel (hERG) as well as liver toxicity tests against various isoforms of the cytochrome P450 were conducted. […] This might be favorable for peripheral therapeutics with the advantage of no brain-associated side toxicity effects.

[4] = biological target: T1, full length luciferase (Photinus pyralis, UniProt P08659); assay: Full length luciferase counter-screen in transiently transfected HEK293 cells; assay type: cell-based
T1 construct: PW164 has no effect on full length luciferase in transiently transfected HEK293 cells; expressed in transfected cells; host or cells: HEK293
Excerpt: as §1

[5] = test system: normal mechanical sensitivity; conditions: mouse, in vivo
Protocol: (§4) Schemes illustrate the experimental design testing the effect of local and intrathecal PW164 on normal mechanical sensitivity (left) and capsaicin-induced mechanical hypersensitivity (right), respectively. […] Drugs were given at the indicated concentrations in a final injected volume of 3 ul (A) or 5 ul (B); in panel B, drugs were injected 30 min after Cap injection.
(§5) In animals, hypersensitivity is manifested as increased withdrawals from von Frey filament stimulations of the injection site (FIG. 7).

[6] = Whole blood stability; assay type: in vitro ADME
Protocol: as §2

[7] = biological target: T2, FGF13-1a:Nav1.6 (Homo sapiens, UniProt Q9UQD0); assay: Split-luciferase complementation assay (LCA), FGF13-1a:Nav1.6 complex; assay type: cell-based; conditions: LCA dose response, normalized to 0.5% DMSO
T2 construct: luciferase fragment (split-luciferase half); expressed in transfected cells
Excerpt: FIG. 2. In-cell reconstitution of FGF13: Nav1.6 complexes using the split-luciferase assay. A. Principle of split-luciferase assay. B. Luminescence-based complementation assay (LCA) of the FGF13-1a:Nav1.6 (solid dots) and FGF13-1b:Nav1.6 C-tail complex (open dots); control conditions are depicted in black; corresponding dark red dots refer to LCA complexes in the presence of the tyrosine kinase inhibitor MNS used as negative control. C,D. Summary bar graphs depicting assay robustness with respective Z′ score calculations for each LCA complex.
as §1

[8] = biological target: T3, FGF13-1b:Nav1.6 channel (Homo sapiens, UniProt Q9UQD0); assay: Patch-clamp, steady-state inactivation in HEK-Nav1.6 cells expressing FGF13-1b; assay type: cell-based
T3 construct: expressed in transfected cells; host or cells: HEK-Nav1.6 cells
Protocol: FIG. 6. […] HEK-Nav1.6 cells were transiently expressing GFP, FGF13-1b-GFP or FGF13-1a-GFP in the presence of DMSO (blue, red and dark red) 50 μM PW164 (black, green, dark green) A, Normalized current as a function of voltage (voltage dependence of steady-state inactivation) with Boltzmann fitting B Bar graph represents V1/2 of steady state inactivation. C. Normalized conductance (G/Gmax) as a function of voltage (voltage dependence of activation) with Boltzmann fitting. D. Bar graph represents V1/2 of activation. Data are represented as mean±SEM; n=4-8 cells per group. **p<0.01; One-WAY ANOVA, post-hoc Bonferroni.
(§3) Based on the success of other PPI regulators targeting ion channels we used the same rationale of selecting compounds that could act as a FGF13 isoform specific blocking FGF13-1b isoform effects mimicking FGF13-1a and select PW164 for functional assays. We used patch-clamp electrophysiology and begun functional validation of the lead compound using a panel of biophysical protocols targeting Nav channels (FIG. 5, 6).

[9] = test system: cytochrome P450; assay: Cytochrome P450 isoform tests; assay type: in vitro ADME; conditions: various isoforms
Protocol: as §2

[10] = Plasma metabolic stability; assay type: in vitro ADME
Protocol: as §2

[11] = test system: capsaicin-induced mechanical hypersensitivity; assay: Capsaicin-induced pain model, von Frey mechanical hypersensitivity; assay type: in vivo, mice
[12] = biological target: T4, FGF13-1b:Nav1.6 C-tail complex (Homo sapiens, UniProt Q9UQD0); assay: Split-luciferase complementation assay (LCA), FGF13-1b:Nav1.6 C-tail complex; assay type: cell-based; conditions: LCA dose response, normalized to 0.5% DMSO; read-out: IC50, prevention of FGF13:Nav1.6 complex assembly
T4 construct: luciferase fragment (split-luciferase half); expressed in transfected cells
Excerpt: In-cell reconstitution of FGF13: Nav1.6 complexes using the split-luciferase assay. […] B. Luminescence-based complementation assay (LCA) of the FGF13-1a:Nav1.6 (solid dots) and FGF13-1b:Nav1.6 C-tail complex (open dots); control conditions are depicted in black; corresponding dark red dots refer to LCA complexes in the presence of the tyrosine kinase inhibitor MNS used as negative control.

[13] = biological target: T5, Nav1.6 (Homo sapiens, UniProt Q9UQD0); assay: Patch-clamp, Na+ transient currents in HEK-Nav1.6 cells; assay type: cell-based; conditions: 50 μM
T5 construct: expressed in transfected cells; host or cells: HEK-Nav1.6 cells
Protocol: FIG. 5. […] A. Representative traces of Na+ transient currents (INa+) recorded from HEK-Nav1.6 cells transiently expressing the indicated constructs in response to depolarizing voltage steps in the presence of 50 μM PW164 or DMSO. B. Current-voltage relationship (I-V) derived from A. C. Summary bar graphs derived from A,B. Data are represented as mean±SEM; n=4-8 cells per group. *p<0.05; One-WAY ANOVA, post-hoc Bonferroni.
as §3

[14] = DMPK profile, oral and intravenous dosing; assay type: in vivo; conditions: oral 20 mg/kg, mouse
Protocol: Relevant parameters such as half-time (t1/2), maximal concentration (Cmax), area under the curve (AUC), apparent volume of distribution at steady state (Vss), clearance (CL) and bioavailability (% F) were calculated in a mouse model.

[15] = test system: normal mechanical sensitivity; assay: Normal mechanical sensitivity, von Frey stimulation of normal skin; conditions: intraplantar injection, 3 ul
Protocol: as §4, §5

T3 sequence (Q9UQD0 whole entry): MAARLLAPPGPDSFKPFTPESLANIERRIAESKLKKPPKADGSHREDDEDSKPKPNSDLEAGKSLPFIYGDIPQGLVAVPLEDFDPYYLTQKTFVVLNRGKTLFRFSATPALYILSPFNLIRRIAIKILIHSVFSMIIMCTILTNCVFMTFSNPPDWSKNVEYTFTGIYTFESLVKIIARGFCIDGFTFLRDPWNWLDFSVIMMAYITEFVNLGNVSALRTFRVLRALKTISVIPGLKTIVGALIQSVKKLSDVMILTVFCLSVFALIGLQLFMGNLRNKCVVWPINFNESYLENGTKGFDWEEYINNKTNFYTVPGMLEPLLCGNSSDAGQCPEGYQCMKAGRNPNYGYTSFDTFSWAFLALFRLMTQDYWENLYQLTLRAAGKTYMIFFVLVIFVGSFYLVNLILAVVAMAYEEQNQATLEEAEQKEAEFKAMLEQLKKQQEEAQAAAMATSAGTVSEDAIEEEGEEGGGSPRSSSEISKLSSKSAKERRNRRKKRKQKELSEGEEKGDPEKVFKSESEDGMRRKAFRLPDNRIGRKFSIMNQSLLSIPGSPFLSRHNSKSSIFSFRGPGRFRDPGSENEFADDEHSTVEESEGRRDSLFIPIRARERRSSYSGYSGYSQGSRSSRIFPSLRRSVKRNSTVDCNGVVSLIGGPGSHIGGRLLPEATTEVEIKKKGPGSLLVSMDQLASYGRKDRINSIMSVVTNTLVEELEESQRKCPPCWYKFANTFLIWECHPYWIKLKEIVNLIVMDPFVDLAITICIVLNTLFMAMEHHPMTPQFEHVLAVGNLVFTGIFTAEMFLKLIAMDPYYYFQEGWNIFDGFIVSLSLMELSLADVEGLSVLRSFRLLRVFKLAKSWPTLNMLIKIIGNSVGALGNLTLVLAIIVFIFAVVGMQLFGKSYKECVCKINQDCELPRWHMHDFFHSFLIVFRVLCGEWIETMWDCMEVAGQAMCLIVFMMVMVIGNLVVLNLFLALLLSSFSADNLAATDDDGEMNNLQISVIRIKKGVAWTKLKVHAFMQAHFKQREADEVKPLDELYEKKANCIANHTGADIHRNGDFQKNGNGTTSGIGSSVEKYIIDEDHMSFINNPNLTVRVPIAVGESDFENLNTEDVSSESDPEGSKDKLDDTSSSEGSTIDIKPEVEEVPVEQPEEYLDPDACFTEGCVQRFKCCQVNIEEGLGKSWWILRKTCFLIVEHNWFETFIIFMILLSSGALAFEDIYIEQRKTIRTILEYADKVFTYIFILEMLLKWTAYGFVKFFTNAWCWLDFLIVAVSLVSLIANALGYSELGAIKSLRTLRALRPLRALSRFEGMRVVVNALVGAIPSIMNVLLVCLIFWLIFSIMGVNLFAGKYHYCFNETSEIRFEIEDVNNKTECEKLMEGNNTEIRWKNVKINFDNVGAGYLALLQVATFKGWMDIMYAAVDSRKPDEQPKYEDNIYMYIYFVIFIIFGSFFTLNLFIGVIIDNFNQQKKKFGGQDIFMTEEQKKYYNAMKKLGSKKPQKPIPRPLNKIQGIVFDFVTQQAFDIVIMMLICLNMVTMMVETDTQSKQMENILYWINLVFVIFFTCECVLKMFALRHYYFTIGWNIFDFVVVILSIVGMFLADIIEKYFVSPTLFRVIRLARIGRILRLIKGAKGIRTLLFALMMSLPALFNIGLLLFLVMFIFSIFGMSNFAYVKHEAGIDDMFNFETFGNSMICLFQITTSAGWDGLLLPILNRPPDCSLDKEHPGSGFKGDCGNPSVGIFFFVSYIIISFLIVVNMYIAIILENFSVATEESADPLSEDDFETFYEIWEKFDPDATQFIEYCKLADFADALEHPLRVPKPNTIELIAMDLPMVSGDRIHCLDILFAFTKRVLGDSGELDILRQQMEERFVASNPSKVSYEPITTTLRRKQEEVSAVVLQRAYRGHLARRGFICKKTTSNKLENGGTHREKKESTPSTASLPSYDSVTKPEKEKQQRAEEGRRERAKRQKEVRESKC
Sequence of human cardiac ERG channel (hERG) (Q12809 whole entry, canonical isoform): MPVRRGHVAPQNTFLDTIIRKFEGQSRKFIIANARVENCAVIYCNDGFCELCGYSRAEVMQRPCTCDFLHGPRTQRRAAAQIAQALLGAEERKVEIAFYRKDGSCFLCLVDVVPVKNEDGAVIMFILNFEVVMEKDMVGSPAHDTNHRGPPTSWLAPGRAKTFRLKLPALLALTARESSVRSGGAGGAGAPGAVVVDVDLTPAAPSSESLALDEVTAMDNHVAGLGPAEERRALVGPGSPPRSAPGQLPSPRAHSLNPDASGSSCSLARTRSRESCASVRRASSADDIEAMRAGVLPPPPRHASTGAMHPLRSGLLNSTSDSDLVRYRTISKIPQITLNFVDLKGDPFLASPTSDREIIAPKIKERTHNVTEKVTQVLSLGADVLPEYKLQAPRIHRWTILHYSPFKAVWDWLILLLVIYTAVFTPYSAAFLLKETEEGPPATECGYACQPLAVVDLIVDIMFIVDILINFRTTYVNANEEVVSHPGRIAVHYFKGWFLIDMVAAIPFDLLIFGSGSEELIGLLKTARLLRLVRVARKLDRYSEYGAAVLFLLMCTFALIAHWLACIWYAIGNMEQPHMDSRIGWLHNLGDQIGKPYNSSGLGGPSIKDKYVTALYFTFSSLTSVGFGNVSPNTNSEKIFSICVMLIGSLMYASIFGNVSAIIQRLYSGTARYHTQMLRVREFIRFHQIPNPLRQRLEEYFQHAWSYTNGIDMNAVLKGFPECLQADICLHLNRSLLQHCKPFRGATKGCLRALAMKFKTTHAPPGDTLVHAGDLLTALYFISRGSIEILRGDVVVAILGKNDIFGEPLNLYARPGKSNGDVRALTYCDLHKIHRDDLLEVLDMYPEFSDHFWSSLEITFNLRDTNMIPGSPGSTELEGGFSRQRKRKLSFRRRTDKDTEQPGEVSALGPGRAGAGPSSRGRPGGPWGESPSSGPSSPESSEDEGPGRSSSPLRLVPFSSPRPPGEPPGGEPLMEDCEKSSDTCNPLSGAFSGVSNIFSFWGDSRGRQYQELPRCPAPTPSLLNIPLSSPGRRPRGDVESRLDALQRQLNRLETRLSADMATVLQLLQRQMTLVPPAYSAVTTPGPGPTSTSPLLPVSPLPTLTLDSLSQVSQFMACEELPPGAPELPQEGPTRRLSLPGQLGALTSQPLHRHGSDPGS
T1 sequence (P08659 whole entry, species assumed): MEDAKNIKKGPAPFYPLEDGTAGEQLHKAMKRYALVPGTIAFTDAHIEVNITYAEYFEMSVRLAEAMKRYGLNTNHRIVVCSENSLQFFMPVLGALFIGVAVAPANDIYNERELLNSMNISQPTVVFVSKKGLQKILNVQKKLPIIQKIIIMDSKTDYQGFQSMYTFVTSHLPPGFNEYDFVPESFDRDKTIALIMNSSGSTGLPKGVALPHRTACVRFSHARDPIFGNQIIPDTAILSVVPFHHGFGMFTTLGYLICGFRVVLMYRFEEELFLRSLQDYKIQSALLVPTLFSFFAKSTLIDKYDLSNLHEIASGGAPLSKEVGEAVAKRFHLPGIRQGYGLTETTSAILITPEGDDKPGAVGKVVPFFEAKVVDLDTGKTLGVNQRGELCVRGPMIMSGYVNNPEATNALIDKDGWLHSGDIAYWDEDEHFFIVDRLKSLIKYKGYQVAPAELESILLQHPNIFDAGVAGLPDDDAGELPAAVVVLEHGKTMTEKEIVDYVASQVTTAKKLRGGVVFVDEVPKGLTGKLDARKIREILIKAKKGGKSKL
T5 sequence (Q9UQD0 whole entry): as the sequence (Q9UQD0 whole entry) above
T2 sequence (Q9UQD0 1763-1980 limits assumed): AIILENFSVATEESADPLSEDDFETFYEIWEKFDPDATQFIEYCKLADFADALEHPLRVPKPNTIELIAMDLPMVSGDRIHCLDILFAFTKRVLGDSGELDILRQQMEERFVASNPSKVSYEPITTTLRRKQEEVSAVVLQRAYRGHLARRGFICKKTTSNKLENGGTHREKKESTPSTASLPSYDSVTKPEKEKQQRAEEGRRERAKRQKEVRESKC
T4 sequence (Q9UQD0 1763-1980 limits assumed, one chain of several): as the sequence (Q9UQD0 1763-1980 limits assumed) above

COC(=O)[C@@H](NC(=O)[C@H](CCC(=O)OC(C)(C)C)NC(=O)[C@H](CC(C)C)NC(=O)[C@@H]1CCCN1C(=O)OCc1ccccc1)C(C)C [PW164, Benzyl(S)-2-(((S)-1-(((S)-5-(tert-butoxy)-1-(((S)-1-methoxy-3-methyl-1-oxobutan-2-yl)amino)-1,5-dioxopentan-2-yl)amino)-4-methyl-1-oxopentan-2-yl)carbamoyl) pyrrolidine-1-carboxylate] (Cbz-PLE(OtBu)V-OMe)
Cytotoxicity (LDH) [1]: not toxic
Mechanical hypersensitivity to LVF at surgical wound [2]: inhibits the hypersensitivity
hERG liability [3]: no hERG and CYP450s liabilities
Effect on full length luciferase [4]: no effect
Normal mechanical sensation, paw withdrawal response to LVF and HVF [5]: no changes in paw withdrawal response
Human whole blood stability [6]: high
Effect on FGF13-1A binding to Nav1.6 [7]: does not have a significant effect
Availability of FGF13-1b:Nav1.6 channel pool ([8]; 50 μM, HEK-Nav1.6 cells expressing FGF13-1b-GFP): decreases availability
Shift in V1/2 of steady-state inactivation ([8]; in the presence of FGF13-1b): hyperpolarizing shift
CYP450s liability [9]: no hERG and CYP450s liabilities
Human plasma metabolic stability [10]: high
Capsaicin-induced mechanical hypersensitivity ([11]; intrathecal, 5 ul, 30 min after capsaicin): does not inhibit
Duration of effect compared to bupivacaine ([11]; local injection at capsaicin site): longer-lasting effects without completely blocking mechanical sensation
Mechanical hypersensitivity to LVF and HVF von Frey stimulation ([11]; local injection at capsaicin site, 30 min after capsaicin, 3 ul): dose-dependently inhibits mechanical hypersensitivity
pIC50 [12]: 4.75
Effect on Na+ transient currents [13]: acts as a FGF13-1a mimic on transient Na+ currents
Oral bioavailability ([14]; intravenous 10 mg/kg): moderate
Oral half-life [14]: moderate

CCCCN1CCCCC1C(=O)Nc1c(C)cccc1C (stereo not shown) [bupivacaine]
Normal mechanical sensation, paw withdrawal response to LVF and HVF [15]: complete sensory block
